Results from PubChem BioAssay AID248 (DTP/NCI, 2004).
Inconclusive results and toxic doses are left out. Cut-off read from the data, not from the text of the source: active = T/C of 150% or more; inactive = T/C below 125%.

System: L1210 leukemia ip in BDF1 mice, survival T/C
Assay: NCI In Vivo Anticancer Drug Screen. Data for tumor model L1210 Leukemia (intraperitoneal) in B6D2F1 (BDF1) mice
Settings: endpoint: mean survival time, higher = longer survival
In short: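 Transplanted-tumor mice were given test agent; controls received vehicle only. Survival readings from the two groups were divided (treated over control).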

[1] = dose: 100.0 mg/kg/injection, schedule: Q04DX003 (ip), vehicle: Klucel (hydroxypropylcellulose) (HPC)
[2] = dose: 200.0 mg/kg/injection, schedule: Q04DX003 (ip), vehicle: Klucel (hydroxypropylcellulose) (HPC)
[3] = dose: 400.0 mg/kg/injection, schedule: Q04DX003 (ip), vehicle: Klucel (hydroxypropylcellulose) (HPC)
[4] = dose: 100.0 mg/kg/injection, schedule: Q01DX009 (ip), vehicle: Klucel (hydroxypropylcellulose) (HPC)
[5] = dose: 200.0 mg/kg/injection, schedule: Q01DX009 (ip), vehicle: Klucel (hydroxypropylcellulose) (HPC)
[6] = dose: 400.0 mg/kg/injection, schedule: Q01DX009 (ip), vehicle: Klucel (hydroxypropylcellulose) (HPC)

Measured: T/C

COC(=O)C1CC(=O)c2c(O)ccc(O)c2C1 (stereo unspecified)
inactive: dose: 12.5 mg/kg/injection, schedule: Q04DX003 (ip), vehicle: Klucel (hydroxypropylcellulose) (HPC) 96 % of control | dose: 25.0 mg/kg/injection, schedule: Q04DX003 (ip), vehicle: Klucel (hydroxypropylcellulose) (HPC) 104 % of control | dose: 50.0 mg/kg/injection, schedule: Q04DX003 (ip), vehicle: Klucel (hydroxypropylcellulose) (HPC) 98 % of control | dose: 100.0 mg/kg/injection, schedule: Q01DX001 (ip), vehicle: Klucel (hydroxypropylcellulose) (HPC) 92 % of control | [1] 100 % of control | dose: 200.0 mg/kg/injection, schedule: Q01DX001 (ip), vehicle: Klucel (hydroxypropylcellulose) (HPC) 92 % of control | [2] 101 % of control | dose: 400.0 mg/kg/injection, schedule: Q01DX001 (ip), vehicle: Klucel (hydroxypropylcellulose) (HPC) 90 % of control | [3] 106 % of control

O=C(Sc1ccccc1)n1nc(Cl)c2ccc([N+](=O)[O-])cc21
inactive: dose: 100.0 mg/kg/injection, schedule: Q01DX001 (ip), vehicle: saline 94 % of control | dose: 200.0 mg/kg/injection, schedule: Q01DX001 (ip), vehicle: saline 94 % of control | dose: 400.0 mg/kg/injection, schedule: Q01DX001 (ip), vehicle: saline 90 % of control

COC(=O)c1ccccc1NC(=O)Nc1ccccc1
inactive: [4] 108 % of control | [1] 101 % of control | [5] 101 % of control | [2] 101 % of control | [6] 100 % of control | [3] 98 % of control

N#C/C(=N\N=Nc1ccccc1)c1ccccc1
inactive: dose: 1.5 mg/kg/injection, schedule: Q01DX009 (ip), vehicle: DMSO 90 % of control | dose: 6.0 mg/kg/injection, schedule: Q01DX009 (ip), vehicle: DMSO 92 % of control | dose: 12.5 mg/kg/injection, schedule: Q01DX009 (ip), vehicle: DMSO 98 % of control | dose: 12.5 mg/kg/injection, schedule: Q04DX003 (ip), vehicle: DMSO 98 % of control | dose: 25.0 mg/kg/injection, schedule: Q04DX003 (ip), vehicle: DMSO 98 % of control | dose: 50.0 mg/kg/injection, schedule: Q04DX003 (ip), vehicle: DMSO 102 % of control

Ic1ccc(/C=C2\C=Cc3ccccc32)cc1
inactive: dose: 100.0 mg/kg/injection, schedule: Q01DX001 (ip), vehicle: carboxymethylcellulose (CMC) 100 % of control | dose: 200.0 mg/kg/injection, schedule: Q01DX001 (ip), vehicle: carboxymethylcellulose (CMC) 100 % of control | dose: 400.0 mg/kg/injection, schedule: Q01DX001 (ip), vehicle: carboxymethylcellulose (CMC) 100 % of control

N#Cc1cnc(SCc2ccccc2)nc1N
inactive: dose: 100.0 mg/kg/injection, schedule: Q01DX001 (ip), vehicle: gum acacia 95 % of control | dose: 100.0 mg/kg/injection, schedule: Q01DX009 (ip), vehicle: gum acacia 95 % of control | dose: 200.0 mg/kg/injection, schedule: Q01DX001 (ip), vehicle: gum acacia 95 % of control | dose: 200.0 mg/kg/injection, schedule: Q01DX009 (ip), vehicle: gum acacia 98 % of control | dose: 400.0 mg/kg/injection, schedule: Q01DX001 (ip), vehicle: gum acacia 98 % of control | dose: 400.0 mg/kg/injection, schedule: Q01DX009 (ip), vehicle: gum acacia 107 % of control

C=Cc1ccc(C(=O)O)cc1
inactive: dose: 100.0 mg/kg/injection, schedule: Q04DX002 (ip), vehicle: saline with Tween-80 98 % of control | dose: 200.0 mg/kg/injection, schedule: Q04DX002 (ip), vehicle: saline with Tween-80 98 % of control | dose: 400.0 mg/kg/injection, schedule: Q04DX002 (ip), vehicle: saline with Tween-80 106 % of control

OCCCN=Cc1ccccc1O.[Co]
inactive: dose: 5.0 mg/kg/injection, schedule: Q01DX001 (ip), vehicle: saline 100 % of control | dose: 10.0 mg/kg/injection, schedule: Q01DX001 (ip), vehicle: saline 94 % of control | dose: 20.0 mg/kg/injection, schedule: Q01DX001 (ip), vehicle: saline 100 % of control | dose: 40.0 mg/kg/injection, schedule: Q01DX001 (ip), vehicle: saline 102 % of control | dose: 80.0 mg/kg/injection, schedule: Q01DX001 (ip), vehicle: saline 105 % of control

C[C@]12C=CC(=O)C=C1CC[C@@H]1[C@@H]2[C@@H](O)C[C@@]2(C)[C@H]1CC[C@]2(O)C(=O)COC(=O)C1CCCC1
inactive: dose: 89.0 mg/kg/injection, schedule: Q01DX Z (sc), vehicle: distilled water + alcohol 111 % of control | dose: 89.0 mg/kg/injection, schedule: Q01DX Z (sc), vehicle: steriod suspending solution 104 % of control | dose: 130.0 mg/kg/injection, schedule: Q01DX Z (sc), vehicle: steriod suspending solution 98 % of control | dose: 133.0 mg/kg/injection, schedule: Q01DX Z (sc), vehicle: distilled water + alcohol 96 % of control | dose: 200.0 mg/kg/injection, schedule: Q01DX Z (sc), vehicle: distilled water + alcohol 96 % of control | dose: 200.0 mg/kg/injection, schedule: Q01DX Z (sc), vehicle: steriod suspending solution 112 % of control | dose: 300.0 mg/kg/injection, schedule: Q01DX Z (sc), vehicle: distilled water + alcohol 108 % of control | dose: 300.0 mg/kg/injection, schedule: Q01DX Z (sc), vehicle: steriod suspending solution 93 % of control

CC(C)=NNC(=O)NO
inactive: dose: 75.0 mg/kg/injection, schedule: Q01DX001 (ip), vehicle: saline 102 % of control

Clc1ccc(CSc2ncc(Br)c(N3CC3)n2)c(Cl)c1
inactive: dose: 88.0 mg/kg/injection, schedule: Q01DX Z (ip), vehicle: methylcellulose (MC) 89 % of control | dose: 133.0 mg/kg/injection, schedule: Q01DX Z (ip), vehicle: methylcellulose (MC) 94 % of control

CCCCCCCCC(O)CCCC (stereo unspecified)
inactive: [4] 93 % of control | [1] 97 % of control | [5] 98 % of control | [2] 105 % of control | [6] 95 % of control | [3] 100 % of control

CCC1C(=O)OCc2c1c(Br)cn(C)c2=O (stereo unspecified)
inactive: dose: 12.5 mg/kg/injection, schedule: Q04DX003 (ip), vehicle: saline 98 % of control | dose: 12.5 mg/kg/injection, schedule: Q04DX003 (oral), vehicle: saline with Tween-80 100 % of control | dose: 25.0 mg/kg/injection, schedule: Q01DX001 (ip), vehicle: saline with Tween-80 101 % of control | dose: 25.0 mg/kg/injection, schedule: Q04DX003 (ip), vehicle: saline 97 % of control | dose: 25.0 mg/kg/injection, schedule: Q04DX003 (oral), vehicle: saline with Tween-80 100 % of control | dose: 50.0 mg/kg/injection, schedule: Q01DX001 (ip), vehicle: saline with Tween-80 93 % of control | dose: 50.0 mg/kg/injection, schedule: Q04DX003 (ip), vehicle: saline 108 % of control | dose: 50.0 mg/kg/injection, schedule: Q04DX003 (oral), vehicle: saline with Tween-80 104 % of control | dose: 100.0 mg/kg/injection, schedule: Q01DX001 (ip), vehicle: saline with Tween-80 97 % of control | dose: 100.0 mg/kg/injection, schedule: Q04DX003 (ip), vehicle: saline 93 % of control | dose: 100.0 mg/kg/injection, schedule: Q04DX003 (oral), vehicle: saline with Tween-80 96 % of control | dose: 200.0 mg/kg/injection, schedule: Q01DX001 (ip), vehicle: saline with Tween-80 101 % of control

Cc1c(C#N)oc2c(Cl)cc(Cl)cc12
inactive: [4] 99 % of control | [1] 100 % of control | [5] 99 % of control | [2] 100 % of control | [3] 101 % of control

Cn1ccc(=O)[nH]c1=O
inactive: [1] 96 % of control | [2] 89 % of control | [3] 115 % of control

O=C(NCCCl)Nc1cccnc1
inactive: dose: 6.25 mg/kg/injection, schedule: Q01DX009 (ip), vehicle: saline 104 % of control | dose: 12.5 mg/kg/injection, schedule: Q01DX009 (ip), vehicle: saline 101 % of control | dose: 12.5 mg/kg/injection, schedule: Q04DX003 (ip), vehicle: saline with Tween-80 102 % of control | dose: 25.0 mg/kg/injection, schedule: Q01DX009 (ip), vehicle: saline 105 % of control | dose: 25.0 mg/kg/injection, schedule: Q04DX003 (ip), vehicle: saline with Tween-80 96 % of control

OC(Cc1ccc2ccccc2n1)C(Cl)(Cl)Cl (stereo unspecified)
inactive: dose: 25.0 mg/kg/injection, schedule: Q01DX009 (ip), vehicle: saline with Tween-80 103 % of control | dose: 50.0 mg/kg/injection, schedule: Q01DX009 (ip), vehicle: saline with Tween-80 91 % of control | [4] 101 % of control | dose: 100.0 mg/kg/injection, schedule: Q01DX009 (ip), vehicle: saline with Tween-80 101 % of control | [5] 93 % of control | dose: 200.0 mg/kg/injection, schedule: Q01DX009 (ip), vehicle: saline with Tween-80 89 % of control | [6] 101 % of control | dose: 400.0 mg/kg/injection, schedule: Q01DX009 (ip), vehicle: saline with Tween-80 114 % of control
